Measurements reported in patent US6339088B1, “Composition for treatment of external secretion disorders except hypol acrimation” (R-Tech Ueno. Ltd., priority 1999, dated 2002).

Legend:
diabetic patient = test: Saliva secretion in a diabetic patient after instillation of 0.3% eye drops; type: in vivo, human; settings: 0.3% eye drops instilled four times a day, sixth day after start of administration
Source text: [3-(4-Bromo-2-fluorobenzyl)-7-chloro-2,4-dioxo-1,2,3,4-tetrahydroquinazolin-1-yl]acetate, a compound represented by the general formula (II) having aldose reductase-inhibiting effect as an active ingredient was used for preparation of a 0.3% eye drops.
The 0.3% eye drops was instilled to a diabetic patient four times a day.

Male Sprague-Dawley rats = test: Effect on saliva secretion in rats (filter-paper infiltration distance); type: in vivo, rat; settings: 50 μL of 0.3% solution intraorally three times a day on Day 1 and 2, measured Day 3 one hour after administration
Protocol: [3-(4-Bromo-2-fluorobenzyl)-7-chloro-2,4-dioxo-1,2,3,4-tetrahydroquinazolin-1-yl]acetate, a compound represented by the general formula (II) having aldose reductase-inhibiting effect as an active ingredient was used for preparation of a 0.3% solution.
Male Sprague-Dawley rats (aged 7 weeks) were used. The rats were intraorally administered with 50 μL of the 0.3% solution or distilled water three times a day (10:00, 14:00, 18:00) on Day 1 and Day 2. On Day 3, the time upon lapse of one hour after the administration at 10:00 and 14:00, a strip of filter-paper (Schirmer Tear Production Measuring Strips: SHOWA YAKUHIN KAKO CO., LTD.) with the length of 37 mm and width of 5 mm was inserted between the lower teeth gums and the lower jaw of the rat to absorb the saliva into the filter-paper. The infiltration distance of the saliva into the filter-paper was measured every 1 minute for 5 minutes.

Question: Which results are given for `O=C(O)Cn1c(=O)n(Cc2ccc(Br)cc2F)c(=O)c2ccc(Cl)cc21` [formula (II), [3-(4-bromo-2-fluorobenzyl)-7-chloro-2,4-dioxo-1,2,3,4-tetrahydroquinazolin-1-yl]acetate]?
Answer: saliva secretion (diabetic patient): obvious sthenia of saliva secretion; The infiltration distance of the saliva into filter-paper, mm, mean ± S.E., after 1 min. (Male Sprague-Dawley rats; after 1 min.): 8.1 ± 1.5 mm; The infiltration distance of the saliva into filter-paper, mm, mean ± S.E., after 2 min. (Male Sprague-Dawley rats; after 2 min.): 10.6 ± 1.8 mm; The infiltration distance of the saliva into filter-paper, mm, mean ± S.E., after 3 min. (Male Sprague-Dawley rats; after 3 min., * P<0.05 vs control): 12.6 ± 2.0* mm; The infiltration distance of the saliva into filter-paper, mm, mean ± S.E., after 4 min. (Male Sprague-Dawley rats; after 4 min., * P<0.05 vs control): 13.6 ± 2.1* mm; The infiltration distance of the saliva into filter-paper, mm, mean ± S.E., after 5 min. (Male Sprague-Dawley rats; after 5 min.): 14.5 ± 2.3 mm
